According to patent publication US20240245677A1, “SELECTED COMPOUNDS FOR TARGETED DEGRADATION OF BRD9” (C4 THERAPEUTICS, INC., priority 2021, published 2024):
Read-outs that look alike come from different tables or passages of the source.

What was measured:
[1] = target: T1, BRD4 (Homo sapiens, UniProt O60885); experiment: BRD4 HiBiT degradation assay in HEK293T.92 cells; format: cell-based
T1 construct: endogenously expressing BRD4 with HiBiT fusion tag via CRISPR; endogenous in cells; host or cells: HEK293T.92 (made in-house from 293T, ATCC CRL-3216)
Excerpt: This assay evaluates the degradation of Bromodomain Containing 4 (BRD4) induced by treatment with Compound 1 as measured by luminescence using Nano-Glo® HiBiT Lytic Assay System in HEK293 cells CRISPR-edited to endogenously express HiBiT tagged BRD4.
Nano-Glo® HiBiT Lytic Assay System was purchased from Promega (Catalog No. N3050, Madison, WI, USA). 293T cells were obtained from ATCC (Catalog No. CRL-3216, Manassas, VA, USA), and maintained in Dulbecco's modified Eagle medium (DMEM) (Catalog No. 12430112, ThermoFisher Scientific, Waltham, MA, USA) supplemented with 10% fetal bovine serum (FBS) (Catalog No. 16000-044, Gibco, Grand Island, NY, USA) at 37° C. in an atmosphere of 5% CO2 in air. The HiBiT polypeptide tag was introduced into the N-terminus of the endogenous BRD4 locus by CRISPR-Cas9 to produce the modified HEK293T.92 cell line. The HiBiT polypeptide allows reconstitution of NanoBiT enzyme following cell lysis and addition of the complementing LgBiT polypeptide that activates substrate to produce a luminescent signal that is directly proportional to the amount of HiBiT-tagged BRD4.
The HEK293T.92 cells were routinely sub-cultured to maintain cell density between 30-80% confluence, not to exceed 20 passages. Cells were washed with PBS pH 7.4 (Catalog No. 10010049, ThermoFisher Scientific, Waltham, MA, USA), trypsinized for 5 minutes at 37° C., and resuspended in fresh growth media without phenol red. An aliquot was diluted 2× with Trypan Blue solution 0.4% (Catalog No. 15250061, ThermoFisher Scientific, Waltham, MA, USA) and cell count determined. Cell concentration was adjusted with growth media without phenol red to 5.0×10^5 cells/mL.
Compound 1 was prepared by dissolving neat compounds in DMSO (Catalog No. D8418, Sigma-Aldrich, Inc., St. Louis, MO, USA) to generate 10 mM stock solution and stored at −20° C. The 10 mM DMSO stock solution of Compound 1 was serially diluted (half log) in DMSO to generate 11-point dose series (10000, 3165, 1000, 316, 100, 31.6, 10, 3.2, 1, 0.32, 0.1 μM) in an acoustic ready 384-well low dead volume microplate (Catalog No. LP-0200, Beckman Coulter Life Sciences, Indianapolis, IN, USA). Using an Echo 550 Acoustic Liquid Handler (Beckman Coulter Life Sciences, Indianapolis, IN, USA), 30 nL of serially diluted compound solutions were dispensed in duplicate to each 384-well TC-treated microplate (Catalog No. 3571, Corning, Glendale, CA, USA). 30 nL DMSO was transferred to all control wells.
30 μL of 293T.92 cells suspended in growth media without phenol red at 5.0×10^5 cells/mL (15000 cells/well) were dispensed using a Multidrop Combi Reagent Dispenser (Catalog No. 5840300, ThermoFisher Scientific, Waltham, MA, USA) to each well of columns 1-23 of 384-well TC-treated microplates containing duplicate concentration range of test compounds and DMSO controls. 30 μL of media was dispensed to column 24 as background positive control (P). Plates were spun briefly at 1000 rpm and cells were incubated at 37° C., 5% CO2 for 24 hours. Final concentration of DMSO was 0.1% for all samples.
Cellular BRD4 protein level was determined based on quantification of HiBiT using Nano-Glo® HiBiT Lytic Assay System (Promega). 30 μL Nano-Glo Lytic Assay reagents were added to each well and luminescence was acquired on EnVision® Multilabel Reader (Catalog No. 2104-0010, Perkin Elmer Inc., Dumfries, VA, USA). Cells treated in the absence of the test compound (0.1% DMSO vehicle) were the negative control (N) and wells containing only media were the positive control (P).
Percent response of compound-treated samples (T) were calculated by normalizing to the DMSO treated negative (N) controls on the same microtiter plate after background (i.e., positive control) signal subtraction:
Curve fit and DC50 (concentration that degrades 50% BRD4) determination was performed by 4 parametric logistic fit analysis using software such as GraphPad Prism software (GraphPad Software, LLC, San Diego, CA, USA). […]

[2] = Crystallization at room temperature by slow evaporation; format: physicochemical
Description: Based on approximate solubility results, about 10 mg of Compound 1 free form Pattern E was dissolved in suitable amount of solvents. Obtained suspensions or solutions were centrifuged. […] Solid residues were examined for their polymorphic form.

[3] = Crystallization under nitrogen flow by fast evaporation; format: physicochemical
Description: Based on approximate solubility results, about 10 mg of Compound 1 free form Pattern E was dissolved in suitable amount of solvents. […] Solid residues were examined for their polymorphic form.

With `COc1cc(-c2cn(C)c(=O)c(C)c2C)cc(OC)c1CN1CC[C@H](N2CCN(c3ccc(N[C@H]4CCC(=O)NC4=O)cc3F)CC2)C(F)(F)C1` [Compound 1, (S)-3-((4-(4-((S)-1-(2,6-dimethoxy-4-(1,4,5-trimethyl-6-oxo-1,6-dihydropyridin-3-yl)benzyl)-3,3-difluoropiperidin-4-yl)piperazin-1-yl)-3-fluorophenyl)amino)-piperidine-2,6-dione] the “% BRD4 Remaining Relative to Vehicle Control at 24 hr, Mean” value ([1]; 0.101 nM) was 96.1%, the “% BRD4 Remaining Relative to Vehicle Control at 24 hr, Mean” value ([1]; 0.318 nM) was 96.3% and the “% BRD4 Remaining Relative to Vehicle Control at 24 hr, Mean” value ([1]; 1.01 nM) was 96.3%. The “% BRD4 Remaining Relative to Vehicle Control at 24 hr, Mean” value ([1]; 3.17 nM) was 96.1%, the “% BRD4 Remaining Relative to Vehicle Control at 24 hr, Mean” value ([1]; 10.0 nM) was 96.0% and the “% BRD4 Remaining Relative to Vehicle Control at 24 hr, Mean” value ([1]; 31.7 nM) was 96.4%. For the same molecule, the “% BRD4 Remaining Relative to Vehicle Control at 24 hr, Mean” value ([1]; 100 nM) was 95.8%, the “% BRD4 Remaining Relative to Vehicle Control at 24 hr, Mean” value ([1]; 317 nM) was 92.5% and the “% BRD4 Remaining Relative to Vehicle Control at 24 hr, Mean” value ([1]; 1000 nM) was 89.2%. The “% BRD4 Remaining Relative to Vehicle Control at 24 hr, Mean” value ([1]; 3161 nM) was 84.4%, the “% BRD4 Remaining Relative to Vehicle Control at 24 hr, Mean” value ([1]; 9990 nM) was 78.1% and the DC50 ([1]; BRD4-HiBiT, 293T.92 cells, 24 hours, read-out: Mean DC50) was over 10 µM. The Emax ([1]; BRD4-HiBiT, 293T.92 cells, 24 hours, read-out: Mean Emax (%) ± SD) was 78.1 ± 3.41%, the “effect on the degradation of BRD4” value ([1]; concentrations up to 10 μM, 24 hours) was “no significant effect” and the DC50 ([1]; summary statement, read-out: DC50 against BRD4) was over 1 µM. For the same molecule, the Comments ([2]; slow evaporation at room temperature, 1,4-dioxane) was “Gel-like sample”, the Comments ([2]; slow evaporation at room temperature, 2-MeTHF) was “Gel-like sample” and the XRPD ([2]; slow evaporation at room temperature, Acetonitrile) was “Pattern A”. For the same molecule, the Comments ([2]; slow evaporation at room temperature, Ethanol) was “Gel-like sample”, the XRPD ([2]; slow evaporation at room temperature, Ethyl acetate) was “Pattern F” and the Comments ([2]; slow evaporation at room temperature, THF) was “Jelly-like sample”. For the same molecule, the Comments ([3]; fast evaporation under nitrogen flow, 1,4-dioxane) was “Gel-like sample”, the Comments ([3]; fast evaporation under nitrogen flow, 2-MeTHF) was “Gel-like sample” and the Comments ([3]; fast evaporation under nitrogen flow, Acetone) was “Gel-like sample”. For the same molecule, the XRPD ([3]; fast evaporation under nitrogen flow, Acetonitrile) was “Pattern B”, the Comments ([3]; fast evaporation under nitrogen flow, DCM) was “Gel-like sample” and the Comments ([3]; fast evaporation under nitrogen flow, Ethanol) was “Gel-like sample”. The Comments ([3]; fast evaporation under nitrogen flow, Ethyl acetate) was “Gel-like sample” and the Comments ([3]; fast evaporation under nitrogen flow, THF) was “Gel-like sample”.
